# Test results taken from PMC11312515, “Biochemical and Structural Characterization of a Novel Psychrophilic Laccase (Multicopper Oxidase) Discovered from Oenococcus oeni 229 (ENOLAB 4002)” (International Journal of Molecular Sciences, 2024).
# T1: LcOe 229 (Oenococcus oeni, UniProt Q04HQ8)
# T1 construct: gene OEOE_0009
# T1 sequence (Q04HQ8 1-488): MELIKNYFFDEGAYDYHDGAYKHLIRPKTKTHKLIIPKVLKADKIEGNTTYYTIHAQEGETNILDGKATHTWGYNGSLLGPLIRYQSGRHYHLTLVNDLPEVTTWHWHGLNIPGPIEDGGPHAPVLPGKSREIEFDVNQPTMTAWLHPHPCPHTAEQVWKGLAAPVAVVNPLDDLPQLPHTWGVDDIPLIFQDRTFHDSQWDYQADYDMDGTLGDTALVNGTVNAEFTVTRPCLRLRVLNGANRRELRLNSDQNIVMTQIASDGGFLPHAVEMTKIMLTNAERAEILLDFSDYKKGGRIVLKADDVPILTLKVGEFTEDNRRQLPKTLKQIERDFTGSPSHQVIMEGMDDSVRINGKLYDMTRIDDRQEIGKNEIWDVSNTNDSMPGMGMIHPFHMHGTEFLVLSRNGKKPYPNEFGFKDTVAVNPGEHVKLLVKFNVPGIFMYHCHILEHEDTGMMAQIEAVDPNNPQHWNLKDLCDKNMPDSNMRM
# Assays:
# LcOe 229 [1] = molecular target: T1, LcOe 229; assay type: biochemical; settings: 2 mM ABTS, 0.1 mM CuSO4, McIlvaine buffer pH 2.5
# LcOe 229 [2] = molecular target: T1, LcOe 229; settings: read-out: % residual activity at 1 mM
# [3] = substrate: COc1cccc(OC)c1O; test: oxidation followed at OD468, microplate, initial rates; assay type: biochemical, Oenococcus oeni; settings: McIlvaine buffer pH 8, 24 °C, hyperbolic
molecule,measurement,setting,value
C#CCN(C)Cc1ccccc1 [pargyline],% residual activity at 1 mM,LcOe 229 [1],"observed with ZnCl2, EDTA, pargyline, EDC, deprenyl, clorgyline, and NaCl"
CCN=C=NCCCN(C)C [EDC],% residual activity at 1 mM,LcOe 229 [1],"observed with ZnCl2, EDTA, pargyline, EDC, deprenyl, clorgyline, and NaCl"
C#CCN[C@@H]1CCc2ccccc21 [rasagiline],remaining activity at 1000 µM,LcOe 229 [2],65%
NNC(N)=O [semicarbazide],remaining activity at 1000 µM,LcOe 229 [2],< 15%
C#CCN(C)CCCOc1ccc(Cl)cc1Cl [clorgyline],% residual activity at 1 mM,LcOe 229 [1],"observed with ZnCl2, EDTA, pargyline, EDC, deprenyl, clorgyline, and NaCl"
C#CCN(C)C(C)Cc1ccccc1 (stereo not drawn) [deprenyl],% residual activity at 1 mM,LcOe 229 [1],"observed with ZnCl2, EDTA, pargyline, EDC, deprenyl, clorgyline, and NaCl"
NC1CC1 [cyclopropylamine],remaining activity at 1000 µM,LcOe 229 [2],77%
"c1ccc(-c2ccccn2)nc1 [2,2′-bipyridyl]",remaining activity at 1000 µM,LcOe 229 [2],94%
"LcOe 229 (Oenococcus oeni PSU-1) (protein, full length, 488 residues, 55544 Da, in pET-28a(+) NheI/BamHI, N-terminal His tag (thrombin-cleavable; cleavage told for crystallography), E. coli BL21(DE3)/pGro7; Ni-NTA; monomer; PCR fragment given as 1641 bp) MELIKNYFFDEGAYDYHDGAYKHLIRPKTKTHKLIIPKVLKADKIEGNTTYYTIHAQEGETNILDGKATHTWGYNGSLLGPLIRYQSGRHYHLTLVNDLPEVTTWHWHGLNIPGPIEDGGPHAPVLPGKSREIEFDVNQPTMTAWLHPHPCPHTAEQVWKGLAAPVAVVNPLDDLPQLPHTWGVDDIPLIFQDRTFHDSQWDYQADYDMDGTLGDTALVNGTVNAEFTVTRPCLRLRVLNGANRRELRLNSDQNIVMTQIASDGGFLPHAVEMTKIMLTNAERAEILLDFSDYKKGGRIVLKADDVPILTLKVGEFTEDNRRQLPKTLKQIERDFTGSPSHQVIMEGMDDSVRINGKLYDMTRIDDRQEIGKNEIWDVSNTNDSMPGMGMIHPFHMHGTEFLVLSRNGKKPYPNEFGFKDTVAVNPGEHVKLLVKFNVPGIFMYHCHILEHEDTGMMAQIEAVDPNNPQHWNLKDLCDKNMPDSNMRM",Km,[3],0.73 (±0.17) mM
same,Vmax,[3],0.01 µmol/min/mg
same,kcat,[3],0.01 s⁻¹
same,kcat/Km,[3],10 M⁻¹ s⁻¹
